In the first assay the target is T1, cloned human M2 receptor (Homo sapiens, UniProt P08172).
T1 construct: purchased Perkin-Elmer RBHM2M; host or cells: Chinese hamster ovary cells (CHO), membranes
T1 sequence (P08172 1-466): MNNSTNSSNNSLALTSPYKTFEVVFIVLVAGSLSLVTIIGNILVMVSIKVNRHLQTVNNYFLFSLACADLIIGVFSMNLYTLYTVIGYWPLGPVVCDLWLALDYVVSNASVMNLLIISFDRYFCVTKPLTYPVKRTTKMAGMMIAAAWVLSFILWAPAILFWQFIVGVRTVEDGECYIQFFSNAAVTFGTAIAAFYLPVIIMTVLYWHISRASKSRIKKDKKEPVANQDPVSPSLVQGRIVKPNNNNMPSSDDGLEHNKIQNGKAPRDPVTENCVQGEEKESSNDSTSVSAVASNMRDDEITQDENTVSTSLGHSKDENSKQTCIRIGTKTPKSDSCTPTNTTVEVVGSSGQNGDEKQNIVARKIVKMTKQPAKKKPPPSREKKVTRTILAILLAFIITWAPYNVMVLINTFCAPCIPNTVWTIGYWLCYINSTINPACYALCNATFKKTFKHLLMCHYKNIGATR
In words: hM2 receptor GTPγS binding. As to conditions: CHO membranes expressing hM2, [35S]GTPγS binding. The class given is biochemical. The protocol:
hM2 Receptor GTPγS Binding Membranes produced from Chinese hamster ovary cells (CHO) expressing the cloned human M2 receptor (human Muscarinic receptor subtype 2, gene bank access NM_000739), are obtained from Perkin-Elmer (RBHM2M). The membranes are thawed at 37° C., passed 3 times through a 23-gauge blunt-end needle, diluted in the GTPγS binding buffer (50 mM Hepes, 20 mM NaOH, 100 mM NaCl, 1 mM EDTA, 5 mM MgCl2, pH 7.4, 100 μM DTT). The EC50, IC50 and Emax of the compounds of the invention are evaluated from 10-point dose-response curves (three fold concentration range) done in 60 μl in 384-well non-specific binding surface plate (Corning). Ten microliters from the dose-response curves plate (5× concentration) are transferred to another 384 well plate containing 25 μl of the following: 5 μg of hM2 membranes, 500 μg of Flashblue beads (Perkin-Elmer) and GDP 25 μM. An additional 15 μl containing 3.3× (60,000 dpm) of GTPγ^35S (0.4 nM final) are added to the wells resulting in a total well volume of 50 μl. Basal and maximal stimulated [^35S]GTPγS binding are determined in absence and presence of 30 μM final of acetylcholine agonist. The membranes/beads mix are pre-incubated for 15 minutes at room temperature with 25 μM GDP prior to distribution in plates (12.5 μM final). The reversal of acetylcholine-induced stimulation (2 μM final) of [^35S]GTPγS binding is used to assay the antagonist properties (IC50) of the compounds. The plates are incubated for 60 minutes at room temperature then centrifuged at 400 rpm for 5 minutes. The radioactivity (cpm) is counted in a Trilux (Perkin-Elmer). Values of EC50, IC50 and Emax are obtained using sigmoidal fits of a non-linear curve-fitting program (XLfit version 4.2.2 Excel add-in version 4.2.2 build 18 math 1Q version 2.1.2 build 18) of percent stimulated [^35S]GTPγS binding vs. log(molar ligand). All pEC50 and pIC50 values are reported as arithmetic means±standard error of mean of ‘n’ independent experiments.
For the molecule `O=C1CO[C@H]2CCCC[C@@H]2N1C1CCN(C2CC(COCC3CC3)C2)CC1` (single isomer, unassigned) [Example 41], the EC50 was above 15000 nM.
`O=C1NC[C@H]2CCCC[C@@H]2N1C1CCN(C2CCC(COCC(F)F)CC2)CC1` (single isomer, unassigned) [Example 50] yielded an EC50 of 340 nM.

In another assay the target is T2, hM3 (human Muscarinic receptor subtype 3) (Homo sapiens, UniProt P20309).
T2 construct: expressed in transfected cells; host or cells: CHO cells (ATCC)
T2 sequence (P20309 whole entry): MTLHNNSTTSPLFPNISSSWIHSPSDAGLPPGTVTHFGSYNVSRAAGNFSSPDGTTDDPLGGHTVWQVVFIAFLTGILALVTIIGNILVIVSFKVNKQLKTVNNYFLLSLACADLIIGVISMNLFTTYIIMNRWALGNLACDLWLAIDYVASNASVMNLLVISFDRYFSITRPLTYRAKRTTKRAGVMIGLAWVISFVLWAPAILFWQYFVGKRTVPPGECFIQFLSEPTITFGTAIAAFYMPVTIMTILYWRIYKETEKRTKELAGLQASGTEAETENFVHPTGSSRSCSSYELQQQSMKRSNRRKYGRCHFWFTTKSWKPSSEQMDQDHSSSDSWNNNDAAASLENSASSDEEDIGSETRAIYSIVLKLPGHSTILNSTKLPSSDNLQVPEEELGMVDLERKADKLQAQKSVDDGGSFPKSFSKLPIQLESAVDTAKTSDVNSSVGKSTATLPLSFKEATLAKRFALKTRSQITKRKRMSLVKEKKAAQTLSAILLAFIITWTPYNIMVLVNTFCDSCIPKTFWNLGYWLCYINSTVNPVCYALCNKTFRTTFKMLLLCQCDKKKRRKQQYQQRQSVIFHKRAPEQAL
The assay can be described thus: Human M3 calcium mobilization FLIPR assay. The assay is classed as cell-based. As to conditions: hM3 expressed in CHO cells, intracellular Ca2+ release (FLIPR). How it is done: (§1) Human M1, rat M1, Human M3 and Human M5 Calcium Mobilization FLIPR™ Assay The compound activity in the present invention (EC50 or IC50) is measured using a 384 plate-based imaging assay that monitors drug induced intracellular Ca^2+ release in whole cells. Activation of hM1 (human Muscarinic receptor subtype 1, gene bank access NM_000738), rM1 (rat Muscarinic receptor subtype 1, gene bank access NM_080773), hM3 (human Muscarinic receptor subtype 3, gene bank access NM_000740NM_000740) and hM5 (human Muscarinic receptor subtype 5, gene bank access NM_0121258), receptors expressed in CHO cells (Chinese hamster ovary cells, ATCC) is quantified in a Molecular Devices FLIPR IITM instrument as an increase in fluorescent signal. Inhibition of hM3 and hM5 by compounds is determined by the decrease in fluorescent signal in response to 2 nM acetylcholine activation. […] Prior to experiment, the cell culture medium is removed from the plates by inversion. […] Plates are incubated at 37° C. for 60 minutes prior to start the experiment. The incubation is terminated by washing the cells four times in assay buffer, leaving a residual 25 μl buffer per well. Cell plates are then transferred to the FLIPR, ready for compound additions. The day of experiment, acetylcholine and compounds are diluted in assay buffer in three-fold concentration range (10 points serial dilution) for addition by FLIPR instrument. For all calcium assays, a baseline reading is taken for 10 seconds followed by the addition of 12.5 μl of compounds, resulting in a total well volume of 37.5 μl. Data is collected every second for 60 pictures and then every 6 seconds for 20 pictures prior to the addition of agonist. For hM3 and hM5, before agonist addition, a second baseline reading is taken for 10 seconds followed by the addition of 12.5 μl of agonist or buffer, producing a final volume of 50 μl. After agonist stimulation, the FLIPR continues to collect data every second for 60 pictures and then every 6 seconds for 20 pictures. The fluorescence emission is read using filter 1 (emission 510-570 nm) by the FLIPR on board CCD camera. Calcium mobilization output data are calculated as the maximal relative fluorescence unit (RFU) minus the minimal value for both compound and agonist reading frame (except for hM1 and rM1 using only the maximal RFU). Data are analyzed using sigmoidal fits of a non-linear curve-fitting program (XLfit version 4.2.2 Excel add-in version 4.2.2 build 18 math 1Q version 2.1.2 build 18). All pEC50 and pIC50 values are reported as arithmetic means±standard error of mean of ‘n’ independent experiments.
Regarding `CCC1CCC(N2CCC(N3C(=O)NC[C@H]4CCCC[C@@H]43)CC2)CC1` (mixture of isomers) [Example 11, (4aR,8aS)-1-(1-(4-ethylcyclohexyl)piperidin-4-yl)octahydroquinazolin-2(1H)-one], the EC50 is above 40000 nM.
On to `O=C1NC[C@H]2CCCC[C@@H]2N1C1CCN(C2CCCCC2)CC1` [Example 12, (4aR,8aS)-1-(1-cyclohexylpiperidin-4-yl)octahydroquinazolin-2(1H)-one], for which the EC50 was above 40000 nM.

The next assay deals with T3, hM1 (human Muscarinic receptor subtype 1) (Homo sapiens, UniProt P11229).
T3 construct: expressed in transfected cells; host or cells: CHO cells (ATCC)
T3 sequence (P11229 1-460): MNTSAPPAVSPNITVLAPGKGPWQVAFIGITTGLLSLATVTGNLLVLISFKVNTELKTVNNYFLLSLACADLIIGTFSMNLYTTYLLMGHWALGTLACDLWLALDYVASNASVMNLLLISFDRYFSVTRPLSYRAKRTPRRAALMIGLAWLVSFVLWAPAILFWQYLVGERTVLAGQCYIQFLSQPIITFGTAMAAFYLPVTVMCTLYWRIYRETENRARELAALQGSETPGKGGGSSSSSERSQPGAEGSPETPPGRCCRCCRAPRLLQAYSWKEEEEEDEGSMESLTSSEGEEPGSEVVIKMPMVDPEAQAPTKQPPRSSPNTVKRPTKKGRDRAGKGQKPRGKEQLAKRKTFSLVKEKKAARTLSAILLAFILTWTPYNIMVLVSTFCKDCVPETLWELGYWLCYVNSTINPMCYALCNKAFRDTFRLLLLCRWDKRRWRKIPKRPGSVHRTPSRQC
The assay can be described thus: Human M1 calcium mobilization FLIPR assay. The assay is classed as cell-based. The settings on record: hM1 expressed in CHO cells, intracellular Ca2+ release (FLIPR). The protocol: as §1
On to `CCC1CCC(N2CCC(N3C(=O)NC[C@H]4CCCC[C@@H]43)CC2)CC1` (mixture of isomers) [Example 11, (4aR,8aS)-1-(1-(4-ethylcyclohexyl)piperidin-4-yl)octahydroquinazolin-2(1H)-one], for which the EC50 came out at 43 nM.
`CCOC[C@H]1CC[C@@H](N2CCC(N3C(=O)COC4CCCCC43)CC2)CC1` (single isomer, unassigned) [Example 33]: the EC50 worked out at 110 nM.
The same measure, in the same setting: next, `O=C1CO[C@@H]2CCCC[C@H]2N1C1CCN([C@H]2CC[C@@H](COCC3CC3)CC2)CC1` [Example 32, (4aR,8aR)-4-(1-((1s,4S)-4-((cyclopropylmethoxy)methyl)cyclohexyl)piperidin-4-yl)hexahydro-2H-benzo[b][1,4]oxazin-3(4H)-one]: 190 nM; `CCCOC1CCC(N2CCC(N3C(=O)CO[C@H]4CCCC[C@@H]43)CC2)CC1` (single isomer, unassigned) [Example 16]: 190 nM; `CCOC[C@H]1CC[C@@H](N2CCC(N3C(=O)COC4CCCCC43)CC2)CC1` (single isomer, unassigned) [Example 34]: 80 nM.
As for `CC(C)OCC1CCC(N2CCC(N3C(=O)CO[C@@H]4CCC(F)(F)C[C@H]43)CC2)CC1` (single isomer, unassigned) [Example 35], the EC50 was found to be 180 nM.
Still for that read-out and setting: as for `O=C1NC[C@H]2CCCC[C@@H]2N1C1CCN(C2CCCCC2)CC1` [Example 12, (4aR,8aS)-1-(1-cyclohexylpiperidin-4-yl)octahydroquinazolin-2(1H)-one], the figure is 60 nM; as for `CCOC[C@H]1CC[C@@H](N2CCC(N3C(=O)CO[C@@H]4CCCC[C@H]43)CC2)C1` [Example 46, (4aR,8aR)-4-(1-((1R,3S)-3-(ethoxymethyl)cyclopentyl)piperidin-4-yl)hexahydro-2H-benzo[b][1,4]oxazin-3(4H)-one], 290 nM.
For the molecule `CC(C)OC1CCC(N2CCC(N3C(=O)NC[C@H]4CCCC[C@@H]43)CC2)CC1` (single isomer, unassigned) [Example 07], the EC50 was determined as 660 nM.
Same read-out and setting: as for `CC(C)OCC1CCC(N2CCC(N3C(=O)CO[C@@H]4CCC(F)(F)C[C@H]43)CC2)CC1` (single isomer, unassigned) [Example 36], the figure is 310 nM; as for `O=C1CO[C@H]2CCCC[C@@H]2N1C1CCN(C2CCC(OCC3CC3)CC2)CC1` (single isomer, unassigned) [Example 20], 170 nM; as for `CCCOC1CCC(N2CCC(N3C(=O)NC[C@H]4CCCC[C@@H]43)CC2)CC1` (single isomer, unassigned) [Example 05], 160 nM.
`O=C1COC2CCCC2N1C1CCN([C@H]2CC[C@@H](COCC3CC3)CC2)CC1` (single isomer, unassigned) [Example 49]: the EC50 turned out to be 110 nM.
Consider `CCOCC1(C)CCC(N2CCC(N3C(=O)CO[C@H]4CCCC[C@@H]43)CC2)CC1` (single isomer, unassigned) [Example 30], for which the half-maximal effective concentration (EC50) came out at 200 nM.
`C#CCOC1CCC(N2CCC(N3C(=O)NC[C@H]4CCCC[C@@H]43)CC2)CC1` (mixture of isomers) [Example 09, (4aR,8aS)-1-(1-(4-(prop-2-ynyloxy)cyclohexyl)piperidin-4-yl)octahydroquinazolin-2(1 H)-one]: the EC50 is 31 nM.
For the molecule `O=C1CO[C@H]2CCCC[C@@H]2N1C1CCN(C2CCC(OCC3CC3)CC2)CC1` (single isomer, unassigned) [Example 21], the EC50 is 110 nM.
Take `O=C1NC[C@H]2CCCC[C@@H]2N1C1CCN(C2CCCC2)CC1` [Example 10, (4aR,8aS)-1-(1-cyclopentylpiperidin-4-yl)octahydroquinazolin-2(1H)-one]: the EC50 came to 68 nM.
Consider `O=C1CO[C@H]2CCCC[C@@H]2N1C1CCN(C2CC(COCC3CC3)C2)CC1` (single isomer, unassigned) [Example 41], for which the EC50 was 52 nM.
`O=C1NC[C@H]2CCCC[C@@H]2N1C1CCN(C2CCC(COCC(F)F)CC2)CC1` (single isomer, unassigned) [Example 50]: the concentration for a half-maximal effect (EC50) worked out at 0.76 nM.
The same measure, in the same setting: next, `O=C1CO[C@@H]2CCC[C@@H]2N1C1CCN([C@H]2CC[C@@H](COCC3CC3)CC2)CC1` [Example 47, (4aS,7aR)-4-(1-((1s,4R)-4-((cyclopropylmethoxy)methyl)cyclohexyl)piperidin-4-yl)hexahydrocyclopenta[b][1,4]oxazin-3(2H)-one]: 93 nM; `CCOCC1(C)CCC(N2CCC(N3C(=O)CO[C@H]4CCCC[C@@H]43)CC2)CC1` (single isomer, unassigned) [Example 31]: 190 nM.
